The record followed here is patent publication US8993717B2, “Gadd45beta targeting agents” (Imperial Innovations Limited, priority 2009, dated 2015).

The test system of series [1] is BMSCs, PBMNCs and MSCs. Nature of the series: Viability/proliferation of primary untransformed human cells. Conditions: up to 100 μM; 48 hrs or 144 hrs. Format: cell-based. The protocol:
In order to determine the in vitro therapeutic index of Z-/mDTPs, viability and proliferation assays were also performed with primary untransformed cells of both human and mouse origin, after treatment with either 10 μM or 100 μM of Z-DTP1, Z-DTP2 and Z-DNC. To this end, bone marrow stromal cells (BMSCs) peripheral blood mononuclear cells (PBMNCs) and mesenkymal stem cells (MSCs) were purified from healthy individuals after Ficoll-Hypaque density separation, in accordance with the protocols reported in the reference by Piva R. et all 2008 Blood 111: 2765-2775). BMSCs, PBMNCs, and MSCs cells were then treated for the times indicated and with the peptide concentrations specified in FIGS. 15A and 15B. To further establish the specificity of the cytotoxic activity of Z-/mDTPs for cancer cells, we also used primary B and T lymphocytes purified from the spleen and lymph nodes of mice, respectively, essentially as described in the reference by Shirakawa et al 2010 Cell Mal immunology 1-12. B and T cells were then activated by simulation with 1 ng/mL of LPS for 16 hrs and subsequently treated with 100 μM of Z-DTP1, Z-DTP2 or Z-DNC for 72 hrs as shown in FIG. 15B.

The target in series [2] is T1, Gadd45β/MKK7 interaction (Homo sapiens, UniProt O14733).
T1 construct: The GST-fused full-length kinase was coated for 16 h at 4° C., at a concentration of 42 nM; made in house
T1 sequence (O14733 1-419): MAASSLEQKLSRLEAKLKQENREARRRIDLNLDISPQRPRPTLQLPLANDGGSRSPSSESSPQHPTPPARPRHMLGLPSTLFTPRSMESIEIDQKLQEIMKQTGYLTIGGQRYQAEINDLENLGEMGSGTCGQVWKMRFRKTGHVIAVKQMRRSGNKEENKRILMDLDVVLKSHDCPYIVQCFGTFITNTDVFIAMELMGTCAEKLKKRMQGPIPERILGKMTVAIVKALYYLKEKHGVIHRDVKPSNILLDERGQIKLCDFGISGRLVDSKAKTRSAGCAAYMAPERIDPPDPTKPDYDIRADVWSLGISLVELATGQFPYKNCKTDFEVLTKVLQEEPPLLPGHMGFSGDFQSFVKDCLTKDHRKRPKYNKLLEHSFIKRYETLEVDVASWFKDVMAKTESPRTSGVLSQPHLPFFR
Kind of series: Co-immunoprecipitation assay, lysates of HEK-293 cells expressing HA-Gadd45β and FLAG-MKK7. Format: binding. Conditions: 1 or 5 nM peptide. The method, then:
Human Embryonic Kidney (HEK-293) were cultured in Dulbecco's modified Eagle's medium (DMEM) supplemented with 10% fetal calf serum (FCS), 100 units/ml penicillin, […] streptomycin, and 1% glutamine. HEK-293 cells (2.2×10^6) were seeded onto 10 cm^2 tissue-culture dishes, and the following day, were transfected with pcDNA-FLAG-MKK7 and pcDNA-HA-Gadd45β plasmids, using a standard Ca3(PO4)2 precipitation technique (Papa, S et al., (2004) Nat. Cell Biol. 6, 146-153). Forty-eight hours after transfection, the cells were washed once with PBS, then resuspended and incubated for 30 min at 4° C. in lysis buffer (20 mM HEPES, 350 mM NaCl, 20% glycerol, 1 mM MgCl2, 0.2 mM EGTA, 1 mM DTT, 1 mM Na3VO4, and 50 mM NaF) supplemented with protease inhibitors (1 mM phenylmethylsulfonylfluoride, 10 μM chymostatin, 2 μg/ml aprotinin, and 2 μg/ml leupeptin) with occasional gentle shaking. The lysed cells were collected and then centrifuged at 45,000×g for 40 min. The resulting cleared cell lysates were used for further analysis.
Immunoprecipitations were performed using essentially the same conditions described in Papa, S et al., (2004) Nat. Cell Biol. 6, 146-153 and the references therein, and an anti-FLAG antibody which precipitated FLAG-tagged MKK7. […]

Series [3] concerns the target T2, MKK7 (Homo sapiens, UniProt O14733).
T2 construct: expressed in transfected cells; host or cells: HEK-293
T2 sequence (O14733 1-419): T1 sequence (O14733 1-419)
Kind of series: MKK7 kinase assay in the absence of Gadd45β. Format: biochemical. To be noted: 1 nM or 5 nM peptide. The method, then:
In FIG. 6, transient transfection of pcDNA-FLAG-MKK7 in HEK-293 cells was performed using the method of Ca3(PO4)2 precipitation, essentially as described in Papa, S et al., (2004) Nat. Cell Biol. 6, 146-153 and references therein. 36 hrs after transfection, the cells were treated with 100 ng/ml phorbol 12-myristate 13-acetate (PMA) and 1 μM ionomycin for 30 min at 37° C. Cell extracts were prepared as described in example 4 and used for immunoprecipitation with anti-FLAG antibodies (binding to FLAG-MKK7) as described in Papa, S et al., (2004) Nat. Cell Biol. 6, 146-153 and references therein. Briefly, 50 μg of cell lysate from PMA-ionomycin (P/D-treated or untreated, HEK-293 cells transiently expressing FLAG-MKK7 was incubated with 10 μl of anti-FLAG M2 Affinity Gel (SIGMA) for 4 hrs at 4° C. during rotation. The immunoprecipitates were then washed 3 times in lysis buffer and twice more in kinase buffer (10 mM HEPES, 5 mM MgCl2, 1 mM MnCl2,12.5 mM β-glycerophosphate, 2 mM DTT, 4 mM NaF and 0.1 mM Na3VO4). MKK7 catalytic activity was finally measured in kinase assays by incubating FLAG-MKK7 immunoprecipitates at 30° C. for 20 min with 20 μl of kinase buffer containing 2 μM of recombinant GST-JNK1 and 5 μCi of [γ-^32P]ATP) (kinase reaction), as described in Papa, S et a., (2004) Nat. Cell Biol. 6, 146-153 and references therein. […]

Square brackets hold non-standard residues; d marks the D form. Peptide text beside a SMILES is read from it. * marks the point of attachment. Cbz = O=C(OCc1ccccc1)*

For `NC(=O)[C@@H](Cc1ccccc1)NC(=O)[C@@H](Cc1c[nH]cn1)NC(=O)[C@@H](CC(=O)O)NC(=O)[C@@H](Cc1ccc(O)cc1)NC(=O)OCc1ccccc1` [Compound 1, Z-Tyr-Asp-His-Phe-NH2] (Cbz-[dY][dD][dH][dF]-NH2), the “toxicity to normal primary human cells (BMSCs, PBMNCs, MSCs)” value in series [1] is given as “no toxicity”. Regarding `N=C(N)NCCC[C@@H](NC(=O)[C@@H](CCC(=O)O)NC(=O)[C@@H](Cc1ccc(O)cc1)NC(=O)OCc1ccccc1)C(=O)N[C@H](Cc1ccccc1)C(N)=O` [Compound 9, Z-D-Tyr-D-Glu-D-Arg-D-Phe-NH2] (Cbz-[dY][dE][dR][dF]-NH2), the “toxicity to normal primary human cells (BMSCs, PBMNCs, MSCs)” value in series [1] is listed as “no toxicity”. As for `CC(=O)N[C@H](Cc1ccc(O)cc1)C(=O)N[C@H](CCC(=O)O)C(=O)N[C@H](CCCNC(=N)N)C(=O)N[C@H](Cc1ccccc1)C(N)=O` [DTP2, Acetyl-(D-Tyr)-(D-Glu)-(D-Arg)-(D-Phe)-NH2] (Ac-[dY][dE][dR][dF]-NH2), the “disruption of the Gadd45β/MKK7 interaction in co-immunoprecipitation” value in series [2] is recorded as “no or very little Gadd45β”. In series [3], the “inhibition of MKK7 catalytic activity in the absence of Gadd45β” value is “nor the active tetrapeptides, DTP1 and DTP2, afforded any inhibition”. Turning to `CC(=O)N[C@H](Cc1ccc(O)cc1)C(=O)N[C@H](CC(=O)O)C(=O)N[C@H](Cc1c[nH]cn1)C(=O)N[C@H](Cc1ccccc1)C(N)=O` [DTP1, Acetyl-(D-Tyr)-(D-Asp)-(D-His)-(D-Phe)-NH2] (Ac-[dY][dD][dH][dF]-NH2), the “disruption of the Gadd45β/MKK7 interaction in co-immunoprecipitation” value in series [2] was “no or very little Gadd45β”. Also, the “inhibition of MKK7 catalytic activity in the absence of Gadd45β” value in series [3] was “nor the active tetrapeptides, DTP1 and DTP2, afforded any inhibition”.
